Data published in patent US9163007B2, “5-substituted indazoles as kinase inhibitors” (AbbVie Inc., priority 2007, dated 2015).
Several values for one entry are separate records, joined by “and”; a condition that tells them apart may be missing. Equal entries are not always repeated.

Experiments:
rats [1] = assay: Spinal nerve (L5/L6) ligation model of neuropathic pain (Chung); assay type: in vivo, rat; conditions: i.p. or p.o., doses ranging from 1-150 mg/kg
From the text: Spinal Nerve (L5/L6) Ligation Model of Neuropathic Pain.
As previously described in detail by Kim and Chung (Kim S. H.; Chung J. M. An experimental model for peripheral neuropathy produced by segmental spinal nerve ligation in the rat. Pain 1992, 50, 355-363), a 1.5 cm incision was made dorsal to the lumbosacral plexus. In anesthetized rats, the paraspinal muscles (left side) were separated from the spinous processes, the L5 and L6 spinal nerves isolated, and tightly ligated with 3-0 silk threads. Following hemostasis, the wound was sutured and coated with antibiotic ointment. The rats were allowed to recover and then placed in a cage with soft bedding for 14 days before behavioral testing for mechanical allodynia.

MUC5AC = assay: Murine asthma model: MUC5AC measurement in BAL; assay type: in vivo, mouse; parameters: dose or concentration left out as unconfirmed
Protocol: Animals were sensitized to OVA on day 0 and 7 with an i.p. injection of 8 μg OVA in 2 mg alum. On days 14 and 16, animals received intra-nasal challenge of 0.3 μg OVA in 50 μl sterile PBS. […] The final dose of compound was administered 30 minutes prior to measurement of airway hyperresponsiveness (AHR). Dexamethasone was administered orally once a day on days 13-17 at a dose of 3 mg/kg. All endpoints were analyzed on day 17, 24 hours after the second OVA challenge. AHR was assessed using unconscious restrained whole body plethysmography. Briefly, a surgical plane of anesthesia was induced with an i.p. injection of ketamine and xylazine. A tracheal canula was surgically inserted between the third and fourth tracheal rings. […] Pressure in the lung and flow within the plethysmograph were measured using transducers, and lung resistance was calculated as pressure/flow using Biosystem Xa software. Baseline resistance as well as resistance following challenge with methacholine (3, 10 or 30 mg/mL) that was delivered with an inline ultrasonic-nebulizer were measured. […] Lavage fluid was analyzed for IL-13, AMCase, Muc5ac and cellular infiltrates. […]
Concentrations of the mucin gene MUC5AC were quantitated by ELISA format. […] The reaction was stopped using 1M H2SO4 and then read in a spectrophotometer at OD 450 nm.

IL-13 = assay: Murine asthma model: IL-13 measurement in bronchoalveolar lavage fluid; assay type: in vivo, mouse
Protocol: Animals were sensitized to OVA on day 0 and 7 with an i.p. injection of 8 μg OVA in 2 mg alum. On days 14 and 16, animals received intra-nasal challenge of 0.3 μg OVA in 50 μl sterile PBS. Animals were dosed i.p. with a representative compound of formula (I), Example 179, (dissolved with 0.5% HMPC, 0.02% Tween 80 in water) twice per day at doses of 3, 10, and 30 mg/kg/dose beginning the afternoon of day 13. The final dose of compound was administered 30 minutes prior to measurement of airway hyperresponsiveness (AHR). Dexamethasone was administered orally once a day on days 13-17 at a dose of 3 mg/kg. All endpoints were analyzed on day 17, 24 hours after the second OVA challenge. AHR was assessed using unconscious restrained whole body plethysmography. Briefly, a surgical plane of anesthesia was induced with an i.p. injection of ketamine and xylazine. A tracheal canula was surgically inserted between the third and fourth tracheal rings. Spontaneous breathing was prevented by an intravenous (i.v.) jugular vein injection of pancuronium bromide. Animals were placed in a whole body plethysmograph (Buxco) and mechanically ventilated with 0.2 mL room air at 150 breaths per minute with a volume-controlled ventilator (Harvard Apparatus). Pressure in the lung and flow within the plethysmograph were measured using transducers, and lung resistance was calculated as pressure/flow using Biosystem Xa software. Baseline resistance as well as resistance following challenge with methacholine (3, 10 or 30 mg/mL) that was delivered with an inline ultrasonic-nebulizer were measured. Upon completion of pulmonary function testing, the lungs were lavaged 4 times with 0.5 mL sterile PBS. Lavage fluid was analyzed for IL-13, AMCase, Muc5ac and cellular infiltrates. The efficacy of the test compound was tested at doses of 3, 10 and 30 mg/kg b.i.d. (6, 20, 60 mg/kg/day). […]
IL-13 concentrations in the bronchoalveolar lavage fluid (BAL) were measured by ELISA (R & D Systems) according to manufacturer's instructions.

rats [2] = assay: Sciatic nerve ligation model of neuropathic pain (Bennett); assay type: in vivo, rat; conditions: i.p. or p.o., doses ranging from 1-150 mg/kg
From the text: Sciatic Nerve Ligation Model of Neuropathic Pain.
As previously described in detail by Bennett and Xie (Bennett G. J.; Xie Y-K. A peripheral mononeuropathy in rat that produces disorders of pain sensation like those seen in man. Pain 1988, 33, 87-107), in anesthetized rats, a 1.5 cm incision was made 0.5 cm below the pelvis and the biceps femoris and the gluteous superficialis (right side) were separated. The sciatic nerve was exposed, isolated, and four loose ligatures (5-0 chromic catgut) with 1 mm spacing were placed around it. The rats were allowed to recover and then placed in a cage with soft bedding for 14 days before behavioral testing for mechanical allodynia as described above. In addition, animals were also tested for cold allodynia by dipping their hind paw in a cold-water bath (4.5° C.) and determining the paw withdrawal latency.

[3] = system: Acidic mammalian chitinase (AMCase); assay: Murine asthma model: AMCase measurement in BAL fluid; assay type: in vivo, mouse; conditions: 30 mg/kg group, p<0.01
Protocol: Animals were sensitized to OVA on day 0 and 7 with an i.p. injection of 8 μg OVA in 2 mg alum. On days 14 and 16, animals received intra-nasal challenge of 0.3 μg OVA in 50 μl sterile PBS. Animals were dosed i.p. with a representative compound of formula (I), Example 179, (dissolved with 0.5% HMPC, 0.02% Tween 80 in water) twice per day at doses of 3, 10, and 30 mg/kg/dose beginning the afternoon of day 13. The final dose of compound was administered 30 minutes prior to measurement of airway hyperresponsiveness (AHR). Dexamethasone was administered orally once a day on days 13-17 at a dose of 3 mg/kg. All endpoints were analyzed on day 17, 24 hours after the second OVA challenge. AHR was assessed using unconscious restrained whole body plethysmography. Briefly, a surgical plane of anesthesia was induced with an i.p. injection of ketamine and xylazine. A tracheal canula was surgically inserted between the third and fourth tracheal rings. […] Pressure in the lung and flow within the plethysmograph were measured using transducers, and lung resistance was calculated as pressure/flow using Biosystem Xa software. Baseline resistance as well as resistance following challenge with methacholine (3, 10 or 30 mg/mL) that was delivered with an inline ultrasonic-nebulizer were measured. […] Lavage fluid was analyzed for IL-13, AMCase, Muc5ac and cellular infiltrates. […]

Balb/c mice = assay: Murine model of acute asthma: airway hyperresponsiveness (lung resistance); assay type: in vivo, mouse; conditions: OVA-challenged mice, i.p. twice per day, tested 3, 10, 30 mg/kg; printed 'doses ranging between 1 and 100 mg/kg'; OVA 6.90, PBS 4.65
From the text: Murine Asthma Model of Acute Asthma
Female Balb/c mice were purchased from Taconic and housed at Abbott Bioresearch Center. Animals were utilized at 8-12 weeks of age. All protocols were approved by the Institutional Animal Care and Use Committee (IACUC). Dexamethasone (Dex), and ovalbumin (OVA) were purchased from Sigma. Endotoxin was removed from ovalbumin using DetoxiGel (Pierce) according to manufacturer's protocol and the final material contained less than 0.1 EU/mg protein. Alum Imject was purchased from Pierce.
Animals were sensitized to OVA on day 0 and 7 with an i.p. injection of 8 μg OVA in 2 mg alum. On days 14 and 16, animals received intra-nasal challenge of 0.3 μg OVA in 50 μl sterile PBS. […] All endpoints were analyzed on day 17, 24 hours after the second OVA challenge. AHR was assessed using unconscious restrained whole body plethysmography. […] Pressure in the lung and flow within the plethysmograph were measured using transducers, and lung resistance was calculated as pressure/flow using Biosystem Xa software. Baseline resistance as well as resistance following challenge with methacholine (3, 10 or 30 mg/mL) that was delivered with an inline ultrasonic-nebulizer were measured. […] Lavage fluid was analyzed for IL-13, AMCase, Muc5ac and cellular infiltrates. […]

O=C(N[C@H](CCO)c1ccccc1)c1cc(-c2ccc3[nH]ncc3c2)on1 [Example 179, N-[(1R)-3-hydroxy-1-phenylpropyl]-5-(1H-indazol-5-yl)isoxazole-3-carboxamide]
inhibition of tactile allodynia (rats [1]): greater than 30% | reduction of MUC5AC levels (MUC5AC): 35% | inhibition of IL-13 induction in BAL fluid (IL-13; 3 mg/kg dose group): no significant inhibition | inhibition of IL-13 induction in BAL fluid (IL-13; 10 mg/kg dose group): no significant inhibition | inhibition of IL-13 induction in BAL fluid (IL-13; 30 mg/kg dose, p<0.05): 60% | inhibition of tactile allodynia (rats [2]): greater than 30% | inhibition of AMCase activity induction in BAL fluid [3]: 45% | methacholine-induced airways resistance (Balb/c mice): 4.55 cm H2O/mL/sec and 4.77 cm H2O/mL/sec
